Laboratory results as given in patent publication US11542492B2 (Celgene CAR LLC, priority 2009, dated 2023).

Experiments:
[1] = target: T1, HCV NS3/4A 1b protease enzyme (wild type) (Hepatitis C virus genotype 1b, UniProt P26663); experiment: HCV protease FRET assay (IC50_APP), wild type NS3/4A 1b; type: biochemical
T1 construct: 10× stocks of NS3/4A protease enzyme from Bioenza (Mountain View, Calif.); purchased Bioenza
How it was run: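 Wild-type NS3/4A 1b protease with serially diluted compounds (from 50% DMSO stocks); reaction started at once with FRET substrate and followed 60-90 min at ex485/em520. Initial velocities (0 to 15+ min) normalised to no-inhibitor and no-enzyme controls; apparent IC50 from variable-slope log[inhibitor]-response fit.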

[2] = target: T2, HCV NS3 protease WT 1b (Hepatitis C virus genotype 1b, UniProt P26663); experiment: MALDI MS of intact HCV protease 1b WT incubated with compound; type: binding
T2 construct: The single-chain proteolytic domain (NS4A21-32-GSGS-NS33-631) was cloned into pET-14b; His tag (own knowledge of vector pET-14b); made in house; host or cells: Escherichia coli BL21
Description: Intact HCV (protease) 1bWT was incubated for 1 hr at a 10× fold excess of XVI-26 to protein. 3 ul aliquots of the samples were diluted with 10 ul of 0.1% TFA prior to micro C4 ZipTipping directly onto the MALDI target using Sinapinic acid as the desorption matrix (10 mg/mL in 0.1% TFA:Acetonitrile 50:50). […] Due to likely protein misfolding during protein purification, a small portion of the misfolded protein was not modified.
In order to determine whether the modification of the protein occurred at lysine, the pH from the above experiment was increased from 7.4 to 10.0. Because the compound lysine adduct would be an amide any increase in pH would have minimal effect on the modified protein. If however, the modification occurred at cysteine the resultant thioester bond would be unstable and the compound would hydrolyze off the protein.
(§1) Intact HCV (protease) 1bWT, C159S, and C159S/K136A were incubated for 1 hr at a 10× fold excess of XVI-26 to protein. 3 μl aliquots of the samples were diluted with 10 μl of 0.1% TFA prior to micro C4 ZipTipping directly onto the MALDI target using Sinapinic acid as the desorption matrix (10 mg/mL in 0.1% TFA:Acetonitrile 50:50).
Intact HCV (protease) WT1b was incubated for 1 hr at a 10× fold excess of XVI-1 (mw=782.87) to protein. 3 μl aliquots of the samples were diluted with 10 μl of 0.1% TFA prior to micro C4 ZipTipping directly onto the MALDI target using Sinapinic acid as the desorption matrix (10 mg/mL in 0.1% TFA:Acetonitrile 50:50). […] Due to some protein misfolding during the purification of the protein, the unfolded portion of the protein can not react with XVI-1.

[3] = target: T3, HCV protease C159S mutant (Hepatitis C virus genotype 1b, UniProt P26663, C1185S); experiment: MALDI MS of intact HCV protease C159S incubated with compound; type: binding; settings: 1 hr, 10× fold excess
T3 construct: The single-chain proteolytic domain (NS4A21-32-GSGS-NS33-631) was cloned into pET-14b; His tag (own knowledge of vector pET-14b); made in house; host or cells: Escherichia coli BL21
Description: as §1

[4] = target: T4, HCV C159S/K136A double mutant (Hepatitis C virus genotype 1b, UniProt P26663, C1185S/K1162A); experiment: MALDI MS of intact HCV protease C159S/K136A double mutant; type: binding; settings: 1 hr, 10× fold excess
T4 construct: The single-chain proteolytic domain (NS4A21-32-GSGS-NS33-631) was cloned into pET-14b; His tag (own knowledge of vector pET-14b); made in house; host or cells: Escherichia coli BL21
Description: as §1

[5] = test system: NS3/4A self-cleavage activity in Huh-7 cells; experiment: Prolonged duration of action (washout), NS3 self-cleavage in transfected Huh-7 cells; type: cell-based; settings: FIG. 11
Description: Parental Huh-7 cells were plated at a density of 1.75×10^6 cells per 100 mm dish in media with 10% FBS. The following day, cells were transfected in OptiMEM using 28 ug of plasmid and 112 ul of Lipfectamine 2000 (Invitrogen), according to manufacturer's instructions. After 4 hours incubation with the transfection complex, the media was changed to Replicon Assay Medium (RPMI supplemented with 5% FBS, 1× non-essential amino acids and pen/strep). The next morning, the cells were trypsinized, counted and replated in Replicon Media at a density of 20,000 cells/well of a 12 well plate (4 wells per genotype). Cells were allowed to adhere to the plate, then the media was removed and replaced with 1 ml media containing XVI-26, (3 wells per compound) and 0.02% DMSO and returned to the incubator overnight. Sixteen hours later 1 treated well from each genotype (0 hr sample) and 1 untreated well were washed with PBS, then lysed and scraped into 30 ul of Cell Extraction Buffer (Biosource, Camarillo, Calif.) plus Complete Protease Inhibitor (Roche, Indianapolis, Ind.). The remaining wells were rinsed 2× with PBS then fed with Replicon Media and returned to the incubator. […] Lysates were resolved using standard immunoblotting methods and NS3 self-cleavage activity was assessed and quantified relative to untreated samples.

[6] = test system: HCT116; experiment: HCT116-WB assay; type: cell-based; settings: Homo sapiens, HCT-116; read-out: HCT116-WB Inhibition Designation
[7] = target: PI3Kβ (Homo sapiens, UniProt P42338); experiment: MALDI MS of intact PI3Kβ incubated with compound; type: binding; settings: 3 hr, 10× fold excess of compound to protein
Sequence of PI3Kβ (P42338 whole entry): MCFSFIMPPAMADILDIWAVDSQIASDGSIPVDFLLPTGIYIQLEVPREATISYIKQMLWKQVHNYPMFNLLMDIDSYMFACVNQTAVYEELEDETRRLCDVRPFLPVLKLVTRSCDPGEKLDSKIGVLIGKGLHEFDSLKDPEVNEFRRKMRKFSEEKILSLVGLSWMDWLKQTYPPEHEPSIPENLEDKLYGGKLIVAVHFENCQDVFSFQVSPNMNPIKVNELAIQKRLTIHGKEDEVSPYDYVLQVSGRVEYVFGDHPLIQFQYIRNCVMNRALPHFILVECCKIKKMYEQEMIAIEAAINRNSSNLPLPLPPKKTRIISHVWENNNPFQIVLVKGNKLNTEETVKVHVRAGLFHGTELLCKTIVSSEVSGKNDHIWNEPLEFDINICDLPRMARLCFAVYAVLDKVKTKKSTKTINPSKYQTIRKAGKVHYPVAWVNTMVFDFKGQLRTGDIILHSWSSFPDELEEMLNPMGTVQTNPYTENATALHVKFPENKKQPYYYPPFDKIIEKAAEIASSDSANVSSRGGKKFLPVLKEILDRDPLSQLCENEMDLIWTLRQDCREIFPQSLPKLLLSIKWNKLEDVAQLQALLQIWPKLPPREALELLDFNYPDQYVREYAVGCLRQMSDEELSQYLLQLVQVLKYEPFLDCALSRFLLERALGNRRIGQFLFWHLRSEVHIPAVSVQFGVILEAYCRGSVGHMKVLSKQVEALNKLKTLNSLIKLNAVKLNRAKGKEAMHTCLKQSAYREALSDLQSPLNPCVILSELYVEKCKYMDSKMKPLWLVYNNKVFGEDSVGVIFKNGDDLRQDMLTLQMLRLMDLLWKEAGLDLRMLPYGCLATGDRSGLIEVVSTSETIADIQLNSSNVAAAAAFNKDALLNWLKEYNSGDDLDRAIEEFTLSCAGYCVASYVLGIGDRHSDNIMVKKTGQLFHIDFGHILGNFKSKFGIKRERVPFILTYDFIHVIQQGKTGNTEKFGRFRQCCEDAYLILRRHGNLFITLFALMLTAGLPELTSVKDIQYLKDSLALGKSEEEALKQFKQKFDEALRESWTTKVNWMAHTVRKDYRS
Sequence of PI3Kβ (P27986 whole entry partner): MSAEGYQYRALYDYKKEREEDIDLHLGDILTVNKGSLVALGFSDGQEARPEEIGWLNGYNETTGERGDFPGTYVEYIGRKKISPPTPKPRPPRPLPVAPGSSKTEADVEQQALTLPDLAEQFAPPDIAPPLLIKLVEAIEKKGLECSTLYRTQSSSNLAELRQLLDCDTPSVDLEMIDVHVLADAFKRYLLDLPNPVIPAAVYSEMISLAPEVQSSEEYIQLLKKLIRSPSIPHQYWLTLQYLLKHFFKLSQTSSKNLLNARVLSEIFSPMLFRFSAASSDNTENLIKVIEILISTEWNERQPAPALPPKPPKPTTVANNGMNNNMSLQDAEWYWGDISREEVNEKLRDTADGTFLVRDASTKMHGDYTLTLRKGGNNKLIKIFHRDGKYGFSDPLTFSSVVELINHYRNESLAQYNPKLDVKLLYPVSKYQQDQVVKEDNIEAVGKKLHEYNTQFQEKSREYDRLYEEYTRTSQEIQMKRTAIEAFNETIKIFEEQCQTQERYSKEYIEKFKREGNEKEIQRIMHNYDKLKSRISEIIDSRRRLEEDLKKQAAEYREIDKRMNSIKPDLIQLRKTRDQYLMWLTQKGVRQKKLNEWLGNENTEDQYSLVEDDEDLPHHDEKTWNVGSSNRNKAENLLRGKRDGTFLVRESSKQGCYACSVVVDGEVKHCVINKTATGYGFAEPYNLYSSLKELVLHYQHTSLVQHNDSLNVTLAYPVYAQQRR
Description: Intact PI3Kβ was incubated for 3 hr at a 10× fold access of compound to protein. 5 μL aliquots of the samples were diluted with 15 μL of 0.1% TFA prior to micro C4 ZipTipping directly onto the MALDI target using Sinapinic acid as the desorption matrix (10 mg/mL in 0.1% TFA:Acetonitrile 50:50). Spots were then analyzed via MALDI-MS. XXII-10 modified PI3Kβ 100% by 3h. XXII-8, XXII-6, XXIII-4, and XXIII-3 each provided between about 35% to about 55% modification.

Structure (SMILES): C=C[C@@H]1C[C@]1(NC(=O)[C@@H]1CC(Oc2cc(-c3ccccc3)nc3cc(OC)ccc23)CN1C(=O)[C@H](CCC(=O)N1CCC1=O)NC(=O)OC(C)(C)C)C(=O)NS(=O)(=O)C1CC1 (some centres unmarked) [XVI-26]
- IC50 [1]: < 1 nM
- stability of adduct at raised pH ([2]; 1 hour at pH 7.4 followed by 2 hours at pH 10): did not come off of the protein
- MS_HCVNS3_INTACT_NS3 WT 1b 1 HR ([2]; WT 1b, 1 HR): H (>50% and ≤70% modification)
- positive mass shift of HCV C159S [3]: 770 Da
- modification of HCV C159S/K136A [4]: no modification
- duration of action after washout [5]: prolonged duration of action

Structure (SMILES): C=CS(=O)(=O)N(C)Cc1cc2nc(-c3cccc(O)c3)nc(N3CCOCC3)c2s1 [XXII-10]
- IC50 [6]: 100 to 1000 nM
- modification of PI3Kβ [7]: 100%
